Our source for the viability, Drug uptake and Activity values is ChEMBL document CHEMBL3616380, “Photocytotoxicity, cellular uptake and subcellular localization of amidinophenylporphyrins as potential photodynamic therapeutic agents: An in vitro cell study” (Bioorg Med Chem Lett, 2015).

Series [1] is described as follows: Photocytotoxicity against human HK1 cells assessed as cell viability at 8 uM measured 24 hrs post 4 J/cm'2 irradiation by MTT reduction assay. The conditions noted are these: HK-1, light or radiation study, read-out: Activity. It is filed as functional. (Tetrazolium assays rely on reduction of a dye to a coloured formazan, in cell work by metabolically active cells.)

A short description of series [2]: Cellular uptake in human HK1 cells assessed per 10^6 cells at 8 uM after 1 to 24 hrs by flow cytometry. It is filed as ADME, cell-based. The settings on record: hk1, 8 µM. (In general: Flow cytometry measures light scatter and fluorescence of single cells or particles in a stream.)
Series [3] can be described thus: Dark cytotoxicity against human HK1 cells assessed as cell viability at 1 to 8 uM after 24 hrs by MTT reduction assay. The series is classed as cell-based. The settings on record: hk1, 24 h.
Series [4] can be described thus: Drug uptake in lysosomes of human HK1 cells at 8 uM after 24 hrs by confocal microscopy analysis. It is filed as ADME, cell-based, Lysosome. The settings on record: hk1, 24 h.
Series [5] in a line: Photocytotoxicity against human HK1 cells assessed as cell viability at 4 uM measured 24 hrs post 12 J/cm'2 irradiation by MTT reduction assay. It is filed as functional. The settings on record: HK-1, light or radiation study, read-out: Activity.
A short description of series [6]: Drug uptake in mitochondria of human HK1 cells at 8 uM after 24 hrs by confocal microscopy analysis. It is filed as ADME. The conditions noted are these: hk1, 24 h.

Consider `N=C(N)c1ccc(-c2c3nc(c(-c4ccc(C(=N)N)cc4)c4ccc([nH]4)c(-c4ccc(C(=N)N)cc4)c4nc(c(-c5ccc(C(=N)N)cc5)c5ccc2[nH]5)C=C4)C=C3)cc1`, for which, in series [1], the viability at 8 µM is 50%. Also, the Drug uptake entry in series [2] and in series [4] was “Active” in each case. The Activity entry in series [3] is “Non-toxic”. In series [5], the viability at 4 µM was found to be 90%.

As for `N=C(N)c1ccc(-c2c3nc(c(-c4ccc(C(=N)N)cc4)c4ccc([nH]4)c(-c4ccc(C(=N)N)cc4)c4nc(c(-c5ccc(OCCCOc6ccc(-c7c8nc(c(-c9ccccc9)c9ccc([nH]9)c(-c9ccccc9)c9nc(c(-c%10ccccc%10)c%10ccc7[nH]%10)C=C9)C=C8)cc6)cc5)c5ccc2[nH]5)C=C4)C=C3)cc1`, the Drug uptake result in series [2] and in series [4] was “Active” throughout. For the same compound, in series [3], the Activity entry is on record as “Non-toxic”. Also, the viability at 4 µM in series [5] was found to be 20%.

For the compound `C[n+]1ccc(-c2c3nc(c(-c4cc[n+](C)cc4)c4ccc([nH]4)c(-c4cc[n+](C)cc4)c4ccc([nH]4)c(-c4cc[n+](C)cc4)c4nc2C=C4)C=C3)cc1` [TMPYP4], the Drug uptake result in series [6] and in series [2] was “Active” in each case. For the same compound, the Activity result in series [3] is “Non-toxic”. The viability at 4 µM in series [5] came out at 58%.
